Results from PubChem BioAssay AID2060606 (Molecular Pharmacology Branch, DTP, NCI, 2025).

Tested on: 922993-354-T-J3-PDC complex spheroids, viability, % test/control
Experiment: Anticancer human tumor 922993-354-T-J3-PDC patient-derived endometrial carcinoma cell line growth inhibition [CLK]
Conditions: for IC50: curve of first compound; for viability, T/C: stronger effect = lower value
Text: A high-throughput screen of multi-cell type tumor spheroids was designed to identify active combinations of […] and targeted small molecules. Complex spheroids include a stromal component modeled by human endothelial cells (HUVEC) and fibroblasts modeled by human mesenchymal stem cells (MSCs). The concentration ranges selected for each drug and investigational agent were based upon clinically achievable concentrations if the clinical Cmax of the agent was known.
Compounds. The drugs and investigational agents: cirtuvivint (SM08502; NSC835563), CC-671 (NSC850746), vemurafenib (NSC761431), tapotoclax (NSC804041), sotorasib (NSC818433), adagrasib (NSC831453), MRTX-1133 (NSC836407), BAY2416964 (NSC825713), copanlisib (NSC816437), inavolisib (NSC800729), abemaciclib (NSC768073), osimertinib (NSC779217), entinostat (NSC756642), eltanexor (KPT-8602, NSC794443), venetoclax (NSC766270), ceralasertib (NSC777638), bortezomib (NSC756655), olaparib (NSC753686), talazoparib (NSC767125), alisertib (NSC759677), peposertib (NSC802822), gemcitabine (NSC613327), 5-fluorouracil (NSC19893), SN-38 (NSC673596), oxaliplatin (NSC266046), paclitaxel (NSC125973), and doxorubicin (NSC123127), were obtained from the National Cancer Institute (NCI) Developmental Therapeutics Program Chemical Repository. The FDA-approved anticancer drug set is available from the Developmental Therapeutics Program at https://dtp.cancer.gov/organization/dscb/obtaining/available plates.htm. […] The stock solutions were prepared in dimethyl sulfoxide (DMSO, Sigma-Aldrich, St. Louis, MO, cat. D2650), except for the platinum complexes which were prepared in saline (Quality Biological, Gaithersburg, MD, cat. 114-055-101), at 800-fold the tested concentration and stored at -70 degrees C prior to their use. All drugs and investigational agents were tested over a range starting from a high concentration at or near the clinical Cmax and decreasing in half-log increments. If the clinical Cmax for an agent had not been determined, the highest concentration tested was 10 microM.
Cell Culture. All cells were maintained in an incubator at 37 degrees C and 5% CO2 with 95% humidity. The PDC lines were cultured according to standard operating procedures established by the NCI PDMR. Briefly, all PDCs were thawed and cultured in Matrigel-coated flasks prepared with a working solution of 1X Ham's F-12 nutrient mix, without supplementation (Invitrogen, Waltham, MA, cat. 11765054), 100 U/mL penicillin-streptomycin (Invitrogen, cat. 15140122), and 2.5% Matrigel (Corning Inc., Corning, NY, cat. 354248) for the first three passages. The 947758-054-R-J2-PDC line was cultured in 6B/Colon 1A media, which includes advanced DMEM/F-12 (Thermo Fisher Scientific, cat. 12634028), 10 mM HEPES (Thermo Fisher Scientific, cat. 15630080), 1X GlutaMAX supplement (Thermo Fisher Scientific, cat. 35050061), 0.1 mg/mL primocin (InvivoGen, cat. ant-pm-2), 10% defined fetal bovine serum, heat inactivated (HyClone Laboratories Inc., cat. SH30070.03HI), 1.25 mM N-Acetyl-L-cysteine (Sigma-Aldrich, cat. A9165), 10 mM nicotinamide (Sigma-Aldrich, cat. N0636), 1X B-27 supplement (Thermo Fisher Scientific, cat. 17504044), 1X N-2 supplement (Thermo Fisher Scientific, cat. 17502048), and 10 microM Y-27632 dihydrochloride (Tocris Bioscience, cat. 1254). The 876862-298-R-J1-PDC was cultured in 6E media, which includes all 6B/Colon 1A media components plus 50% L-WRN conditioned media (ATCC, cat. CRL-3276), 50 ng/mL recombinant human EGF recombinant protein (hEGF; Thermo Fisher Scientific, cat. PHG0311), 10 ng/mL recombinant human fibroblast growth factor 10 (hGFG-10; PeproTech, cat. 100-26), 1 ng/mL recombinant human fibroblast growth factor 2 (hFGF-2; PeproTech, cat. 100-18B), and 1 µM prostaglandin E2 (PGE2; Tocris, cat. 2296). The 227483-062-R1-J1-PDC line was cultured in Panc media, containing all 6E components except hFGF-2, with the addition of 500 nM SB-431542 (Selleckchem, cat. S1067) and 10 nM gastrin (Tocris, cat. 3006). […]

[1] = second compound 0.0316 µM, first compound 0.0316 µM
[2] = second compound 0.0316 µM, first compound 0.1 µM
[3] = second compound 0.0316 µM, first compound 0.316 µM
[4] = second compound 0.0316 µM, first compound 1 µM
[5] = second compound 0.0316 µM, first compound 3.16 µM
[6] = second compound 0.0316 µM, first compound 10 µM
[7] = second compound 0.1 µM, first compound 0.0316 µM
[8] = second compound 0.1 µM, first compound 0.1 µM
[9] = second compound 0.1 µM, first compound 0.316 µM
[10] = second compound 0.1 µM, first compound 1 µM
[11] = second compound 0.1 µM, first compound 3.16 µM
[12] = second compound 0.1 µM, first compound 10 µM
[13] = second compound 0.316 µM, first compound 0.0316 µM
[14] = second compound 0.316 µM, first compound 0.1 µM
[15] = second compound 0.316 µM, first compound 0.316 µM
[16] = second compound 0.316 µM, first compound 1 µM
[17] = second compound 0.316 µM, first compound 3.16 µM
[18] = second compound 0.316 µM, first compound 10 µM
[19] = second compound 1 µM, first compound 0.0316 µM
[20] = second compound 1 µM, first compound 0.1 µM
[21] = second compound 1 µM, first compound 0.316 µM
[22] = second compound 1 µM, first compound 1 µM
[23] = second compound 1 µM, first compound 3.16 µM
[24] = second compound 1 µM, first compound 10 µM
[25] = second compound 3.16 µM, first compound 0.0316 µM
[26] = second compound 3.16 µM, first compound 0.1 µM
[27] = second compound 3.16 µM, first compound 0.316 µM
[28] = second compound 3.16 µM, first compound 1 µM
[29] = second compound 3.16 µM, first compound 3.16 µM
[30] = second compound 3.16 µM, first compound 10 µM
[31] = second compound 10 µM, first compound 0.0316 µM
[32] = second compound 10 µM, first compound 0.1 µM
[33] = second compound 10 µM, first compound 0.316 µM
[34] = second compound 10 µM, first compound 1 µM
[35] = second compound 10 µM, first compound 3.16 µM
[36] = second compound 10 µM, first compound 10 µM
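Further: spheroids exposed to the agents for 7 days before readout.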

C=C(F)C(=O)N1CCN(c2nc(OCC3CCCN3C)nc3c2CCN(c2cccc4cccc(Cl)c24)C3)CC1CC#N (centres undefined) + CN1CCN(c2cc(C(=O)Nc3cc4cc(-c5cnn(C)c5)ccc4cn3)ccn2)CC1
IC50 (second compound 0.0316 µM): 5380 nM
IC50 (second compound 0.1 µM): 5610 nM
IC50 (second compound 0.316 µM): < 31.6 nM
IC50 (second compound 1 µM): < 31.6 nM
IC50 (second compound 3.16 µM): < 31.6 nM
IC50 (second compound 10 µM): < 31.6 nM
viability, T/C [1]: 121%
viability, T/C [2]: 103%
viability, T/C [3]: 118%
viability, T/C [4]: 101%
viability, T/C [5]: 94%
viability, T/C [6]: 1.08%
viability, T/C [7]: 106%
viability, T/C [8]: 95.9%
viability, T/C [9]: 92.6%
viability, T/C [10]: 87%
viability, T/C [11]: 110%
viability, T/C [12]: 1.37%
viability, T/C [13]: 50.1%
viability, T/C [14]: 51.6%
viability, T/C [15]: 36.4%
viability, T/C [16]: 41.5%
viability, T/C [17]: 45.6%
viability, T/C [18]: 0.87%
viability, T/C [19]: 0.79%
viability, T/C [20]: 0.16%
viability, T/C [21]: 0.83%
viability, T/C [22]: 0.12%
viability, T/C [23]: 0.11%
viability, T/C [24]: 1.63%
viability, T/C [25]: 0.14%
viability, T/C [26]: 0.63%
viability, T/C [27]: 0.92%
viability, T/C [28]: 0.12%
viability, T/C [29]: 0.11%
viability, T/C [30]: 1.67%
viability, T/C [31]: 0.19%
viability, T/C [32]: 0.18%
viability, T/C [33]: 0.88%
viability, T/C [34]: 0.29%
viability, T/C [35]: 0.19%
viability, T/C [36]: 0.93%

C=CC(=O)N1CCN(c2nc(=O)n(-c3c(C)ccnc3C(C)C)c3nc(-c4c(O)cccc4F)c(F)cc23)C(C)C1 (centres undefined) + CN1CCN(c2cc(C(=O)Nc3cc4cc(-c5cnn(C)c5)ccc4cn3)ccn2)CC1
IC50 (second compound 0.0316 µM): > 10000 nM
IC50 (second compound 0.1 µM): > 10000 nM
IC50 (second compound 0.316 µM): 43.3 nM
IC50 (second compound 1 µM): < 31.6 nM
IC50 (second compound 3.16 µM): < 31.6 nM
IC50 (second compound 10 µM): < 31.6 nM
viability, T/C [1]: 121%
viability, T/C [2]: 123%
viability, T/C [3]: 132%
viability, T/C [4]: 116%
viability, T/C [5]: 112%
viability, T/C [6]: 112%
viability, T/C [7]: 105%
viability, T/C [8]: 98.6%
viability, T/C [9]: 114%
viability, T/C [10]: 91.6%
viability, T/C [11]: 106%
viability, T/C [12]: 90.1%
viability, T/C [13]: 50.9%
viability, T/C [14]: 48.5%
viability, T/C [15]: 43.5%
viability, T/C [16]: 37.8%
viability, T/C [17]: 41.4%
viability, T/C [18]: 47.4%
viability, T/C [19]: 0.19%
viability, T/C [20]: 0.68%
viability, T/C [21]: 0.16%
viability, T/C [22]: 0.93%
viability, T/C [23]: 0.13%
viability, T/C [24]: 0.12%
viability, T/C [25]: 0.13%
viability, T/C [26]: 0.17%
viability, T/C [27]: 1.53%
viability, T/C [28]: 0.1%
viability, T/C [29]: 0.14%
viability, T/C [30]: 1.14%
viability, T/C [31]: 0.16%
viability, T/C [32]: 0.18%
viability, T/C [33]: 0.17%
viability, T/C [34]: 0.15%
viability, T/C [35]: 0.79%
viability, T/C [36]: 0.2%
